Measurements reported in article PMC12169662, “De Novo-Designed APC/C Inhibitors Provide a Rationale for Targeting RING-Type E3 Ubiquitin Ligases” (Journal of Medicinal Chemistry, 2025).
Values belong to the compound of their own block, whether it stands above or below them. Bridge positions count the residues as written; N and C are the ends. Square brackets hold non-standard residues; d marks the D form. Peptide text beside a SMILES is read from it. R8 = C=CCCCCCC[C@@](C)(N)C(=O)O; S5 = C=CCCC[C@](C)(N)C(=O)O; Pra = C#CC[C@H](N)C(=O)O

How the values were obtained:
c-IAP1 = molecular target: T1, c-IAP1 (Homo sapiens, UniProt Q13490); test: Pull-down binding assay from HeLa cell extract, Western blot; details: peptide clicked to azide agarose beads, n = 3
T1 construct: endogenous in cells; host or cells: HeLa
T1 sequence (Q13490 whole entry): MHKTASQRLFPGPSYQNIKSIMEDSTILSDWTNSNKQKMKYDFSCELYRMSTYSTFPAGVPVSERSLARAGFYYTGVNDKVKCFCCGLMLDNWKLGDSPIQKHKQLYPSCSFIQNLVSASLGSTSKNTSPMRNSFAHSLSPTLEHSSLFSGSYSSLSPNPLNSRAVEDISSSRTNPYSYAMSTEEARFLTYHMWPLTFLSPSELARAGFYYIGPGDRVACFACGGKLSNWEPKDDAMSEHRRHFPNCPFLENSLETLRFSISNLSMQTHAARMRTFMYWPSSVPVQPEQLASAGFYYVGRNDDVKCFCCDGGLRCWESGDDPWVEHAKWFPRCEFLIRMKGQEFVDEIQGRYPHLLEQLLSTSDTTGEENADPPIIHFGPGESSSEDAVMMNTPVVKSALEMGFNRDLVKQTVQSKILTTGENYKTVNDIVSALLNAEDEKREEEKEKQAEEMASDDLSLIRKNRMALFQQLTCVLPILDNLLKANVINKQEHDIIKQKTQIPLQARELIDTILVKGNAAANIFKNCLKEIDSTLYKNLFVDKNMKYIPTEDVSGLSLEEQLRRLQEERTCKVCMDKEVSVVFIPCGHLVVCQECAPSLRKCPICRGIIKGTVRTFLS
Method: (§1) For protein transfer, a 0.45 μm Immobilon-FL PVDF membrane (Merck Millipore) was used. The membrane was activated in ethanol and then transferred to Blotting buffer (50 mM SDS-MOPS, 50 mM Tris base, 0.1% SDS, 1 mM EDTA, and 20% EtOH). The proteins were transferred using a wet transfer for 1.5 h at 400 mA. Subsequently, the membrane was incubated with the blocking solution, 10% milk in PBS-T (0.02% Tween-20 in PBS), for 1 h at room temperature. To detect proteins of interest, the membrane was incubated with primary antibodies overnight at 4° C, followed by 3 washes for 10 min with PBS-T and incubation with IRDye-labeled secondary antibodies for 1 h. Prior to detection, the membrane was washed twice with PBS-T for 10 min and once with PBS for 10 min. The detection was done using the quantitative near-infrared scanning system Odyssey (LI-COR Biosciences).
(§2) HeLa cell pellet was resuspended in the extraction buffer (30 mM HEPES pH 7.5, 175 mM NaCl, 2.5 mM MgCl2, 0.25% NP40, 10% glycerol, 1 mM DTT supplied with complete protease inhibitor cocktail (Roche), PhosSTOP phosphatase inhibitors (Roche), 1 mM PMSF, 10 μM MG132) and incubated for 20 min on ice, followed by centrifugation to clear the lysate for 15 min at 4 °C 16,100 g. In the meantime, inhibitor molecules containing the propargyl-Gly-OH (Pra) chemical group were covalently attached to the azide agarose resin (Jena Bioscience) by Cu(I)-catalyzed azide–alkyne cycloaddition reaction. Specifically, the inhibitor molecules were mixed with azide agarose resin in a ratio of 0.125 μmol inhibitor/20 μL agarose resin. The reaction was catalyzed by 0.1 mM CuSO4, 0.5 mM THPTA (Sigma-Aldrich), and 5 mM Sodium ascorbate and was performed on the rotating wheel for 30 min at room temperature in a volume of 1 mL. Subsequently, the resin was washed five times with extraction buffer. The inhibitor-agarose resin was added to 2 mg of HeLa cell extract and incubated at 4 °C for 2 h. Afterward, the resin was washed four times with extraction buffer. Pull-down proteins were eluted by incubation with prewarmed 1x LDS sample buffer for 10 min at room temperature, followed by taking supernatant supplemented with 100 mM DTT and boiling for 10 min. Afterward, SDS PAGE and Western blot analyses were performed to detect the indicated proteins.

BRCA1 = molecular target: T2, BRCA1 (Homo sapiens, UniProt P38398); test: as above; details: peptide clicked to azide agarose beads, n = 3
T2 construct: endogenous in cells; host or cells: HeLa
T2 sequence (P38398 whole entry): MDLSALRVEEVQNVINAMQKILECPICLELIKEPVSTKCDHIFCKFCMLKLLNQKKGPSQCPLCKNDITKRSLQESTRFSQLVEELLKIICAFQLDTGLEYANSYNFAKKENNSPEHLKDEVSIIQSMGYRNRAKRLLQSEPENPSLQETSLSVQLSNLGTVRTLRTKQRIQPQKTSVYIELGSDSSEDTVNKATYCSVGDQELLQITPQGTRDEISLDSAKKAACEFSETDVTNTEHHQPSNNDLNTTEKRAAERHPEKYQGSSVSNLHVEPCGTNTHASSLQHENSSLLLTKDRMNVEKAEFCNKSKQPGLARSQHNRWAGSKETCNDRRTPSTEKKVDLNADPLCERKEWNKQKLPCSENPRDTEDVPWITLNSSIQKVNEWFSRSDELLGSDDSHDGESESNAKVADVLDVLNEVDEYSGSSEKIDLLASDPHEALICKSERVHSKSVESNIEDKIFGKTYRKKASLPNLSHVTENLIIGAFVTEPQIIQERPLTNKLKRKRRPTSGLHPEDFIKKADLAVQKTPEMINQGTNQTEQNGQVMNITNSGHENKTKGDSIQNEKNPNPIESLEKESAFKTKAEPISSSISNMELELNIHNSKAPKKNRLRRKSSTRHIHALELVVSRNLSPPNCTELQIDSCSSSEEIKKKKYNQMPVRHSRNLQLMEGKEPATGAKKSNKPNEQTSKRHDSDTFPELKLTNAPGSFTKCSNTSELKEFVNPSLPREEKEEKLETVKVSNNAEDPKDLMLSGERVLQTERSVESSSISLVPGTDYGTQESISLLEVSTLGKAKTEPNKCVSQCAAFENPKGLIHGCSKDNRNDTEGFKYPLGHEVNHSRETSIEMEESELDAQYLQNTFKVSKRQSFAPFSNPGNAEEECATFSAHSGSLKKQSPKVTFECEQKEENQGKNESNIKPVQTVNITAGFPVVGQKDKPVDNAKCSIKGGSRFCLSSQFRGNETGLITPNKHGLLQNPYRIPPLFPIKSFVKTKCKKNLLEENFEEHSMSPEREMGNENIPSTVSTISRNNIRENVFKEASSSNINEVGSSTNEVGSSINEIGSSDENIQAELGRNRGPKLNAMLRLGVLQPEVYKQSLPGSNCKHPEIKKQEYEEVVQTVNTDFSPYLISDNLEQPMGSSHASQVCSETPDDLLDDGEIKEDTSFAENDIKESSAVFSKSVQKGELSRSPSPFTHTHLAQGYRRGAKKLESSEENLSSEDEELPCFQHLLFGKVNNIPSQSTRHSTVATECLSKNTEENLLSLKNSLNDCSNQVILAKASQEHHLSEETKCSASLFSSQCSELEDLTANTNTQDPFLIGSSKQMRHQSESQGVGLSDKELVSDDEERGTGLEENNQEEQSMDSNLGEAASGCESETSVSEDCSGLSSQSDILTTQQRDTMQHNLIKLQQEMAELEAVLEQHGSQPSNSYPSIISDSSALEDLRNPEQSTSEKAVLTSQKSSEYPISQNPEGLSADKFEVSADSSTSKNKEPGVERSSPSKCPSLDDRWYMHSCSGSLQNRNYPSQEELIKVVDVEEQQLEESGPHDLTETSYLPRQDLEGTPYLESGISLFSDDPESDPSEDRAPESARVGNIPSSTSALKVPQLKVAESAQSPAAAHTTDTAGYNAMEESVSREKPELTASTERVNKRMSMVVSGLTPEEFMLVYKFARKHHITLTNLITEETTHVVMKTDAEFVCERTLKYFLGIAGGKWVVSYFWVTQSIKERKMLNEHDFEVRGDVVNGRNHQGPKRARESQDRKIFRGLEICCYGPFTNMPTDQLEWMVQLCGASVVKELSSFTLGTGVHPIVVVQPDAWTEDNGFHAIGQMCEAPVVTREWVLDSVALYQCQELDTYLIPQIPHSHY
Method: as §1, §2

APC11 = molecular target: T3, APC11 (Homo sapiens, UniProt Q9NYG5); test: as above; details: peptide clicked to azide agarose beads, 2 mg HeLa extract, 4 °C, 2 h, n = 3
T3 construct: endogenous in cells; host or cells: HeLa
T3 sequence (Q9NYG5 whole entry): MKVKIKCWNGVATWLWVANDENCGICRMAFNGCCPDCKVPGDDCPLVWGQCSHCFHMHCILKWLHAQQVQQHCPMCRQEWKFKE
Method: as §1, §2

RBX1 = molecular target: T4, RBX1 (Homo sapiens, UniProt P62877); test: as above; details: n = 3; for binding to RBX1, Pra-H1 versus Pra-BH3: pull-down with metaphase extracts
T4 construct: endogenous in cells; host or cells: HeLa
T4 sequence (P62877 whole entry): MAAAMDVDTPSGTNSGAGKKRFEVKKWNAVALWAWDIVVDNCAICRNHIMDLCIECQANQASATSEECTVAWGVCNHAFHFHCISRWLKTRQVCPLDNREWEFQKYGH
Method: as §1, §2

BMI1 = molecular target: T5, BMI1 (Homo sapiens, UniProt P35226); test: as above; details: peptide clicked to azide agarose beads, n = 3
T5 construct: endogenous in cells; host or cells: HeLa
T5 sequence (P35226 1-326): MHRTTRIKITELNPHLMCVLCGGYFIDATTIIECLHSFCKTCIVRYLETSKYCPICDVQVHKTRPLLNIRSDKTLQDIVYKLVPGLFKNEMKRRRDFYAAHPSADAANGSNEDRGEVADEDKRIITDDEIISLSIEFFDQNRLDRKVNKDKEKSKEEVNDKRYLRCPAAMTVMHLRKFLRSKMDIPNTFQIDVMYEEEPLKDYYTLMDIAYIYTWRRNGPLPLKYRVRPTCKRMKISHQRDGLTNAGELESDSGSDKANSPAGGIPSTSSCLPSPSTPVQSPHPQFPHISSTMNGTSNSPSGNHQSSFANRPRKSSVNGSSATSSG
Method: as §1, §2

MDM2 = molecular target: T6, MDM2 (Homo sapiens, UniProt Q00987); test: as above; details: peptide clicked to azide agarose beads, n = 3
T6 construct: endogenous in cells; host or cells: HeLa
T6 sequence (Q00987 whole entry): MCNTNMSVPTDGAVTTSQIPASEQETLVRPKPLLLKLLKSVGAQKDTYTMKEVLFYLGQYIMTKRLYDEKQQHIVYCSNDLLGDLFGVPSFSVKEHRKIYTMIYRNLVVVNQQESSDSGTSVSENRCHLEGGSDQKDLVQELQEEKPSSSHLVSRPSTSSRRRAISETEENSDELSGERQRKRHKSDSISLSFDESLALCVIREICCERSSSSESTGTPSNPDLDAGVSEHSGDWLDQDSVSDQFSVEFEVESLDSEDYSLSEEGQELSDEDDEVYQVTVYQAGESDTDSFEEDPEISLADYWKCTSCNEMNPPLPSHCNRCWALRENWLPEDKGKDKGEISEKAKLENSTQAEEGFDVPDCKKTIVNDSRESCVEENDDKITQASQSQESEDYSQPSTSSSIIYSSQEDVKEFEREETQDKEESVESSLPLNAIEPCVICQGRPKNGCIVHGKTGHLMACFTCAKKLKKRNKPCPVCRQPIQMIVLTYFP
Method: as §1, §2

c-CBL = molecular target: T7, c-CBL (Homo sapiens, UniProt P22681); test: as above; details: peptide clicked to azide agarose beads, n = 3
T7 construct: endogenous in cells; host or cells: HeLa
Method: as §1, §2

APC/C [1] = molecular target: T8, APC/C (Homo sapiens, UniProt Q9NYG5); test: In vitro APC/C ubiquitination assay, fully reconstituted with recombinant APC/C, substrate securin; type: biochemical; parameters: made in house; host or cells: SF9 insect cells, co-infected with two baculoviruses (bacmids a gift from David Barford); details: 25 μM, lowest concentration of titration 25-100 μM, n = 3
Method: Next, we tested the APC/C inhibitory proficiency of H1-6 in fully reconstituted activity assays with recombinant APC/C in comparison to BH3 and the commercially available APC/C inhibitor TAME. To account for mechanistic differences in APC/C inhibition between TAME (inhibits CDC20 binding) and ^i APC11 (inhibits E2 binding), all inhibitors, E2s and CDC20 were added simultaneously to APC/C. […] We observed no difference for UBE2C and only a small (∼10%) decrease in UBE2S autoubiquitylation compared to control reactions (Figure S16B–D).
To quantify the inhibitory effectiveness of H6, its IC50 was determined. To this end, we performed in vitro APC/C ubiquitination assays in the presence of H6 titrated from 0.01 to 100 μM (Figure S17B). […]
APC/C-dependent ubiquitination reactions were performed at 30 °C in 30 mM HEPES pH 7.4, 175 mM NaCl, 8 mM MgCl2, 0.05% Tween-20, 1 mM DTT and 5% glycerol and contained 20 nM recombinant APC/C, 340 nM CDC20, 46 nM GST-UBA1, 340 nM UBE2C (alternatively 400 nM UBE2D, 280 nM UBE2S), 21 μM His6-ubiquitin or if it is indicated 21 μM methylated-ubiquitin (BostonBiochem), 2.6 mM ATP, 10 mM phosphocreatine, and 11 μM creatine kinase. […] Detection of fluorescently labeled substrates was done by a quantitative near-infrared scanning system, Odyssey. […]

UBE2S = molecular target: T9, UBE2S (Homo sapiens, UniProt Q16763); test: In vitro E2 activity assay (autoubiquitination); type: biochemical; details: 100 μM, 45 min, 30 °C, Blue Silver staining, n = 3
T9 construct: gift of Sonja Lorenz (MPI, Göttingen, Germany)
T9 sequence (Q16763 1-222): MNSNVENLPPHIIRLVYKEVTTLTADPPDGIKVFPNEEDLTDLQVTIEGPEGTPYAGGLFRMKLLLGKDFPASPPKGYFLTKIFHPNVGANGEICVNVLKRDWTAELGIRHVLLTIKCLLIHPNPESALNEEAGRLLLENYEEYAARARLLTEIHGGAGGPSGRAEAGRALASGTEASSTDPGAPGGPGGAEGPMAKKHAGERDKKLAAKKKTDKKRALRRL
Method: UBE2C and UBE2S activity assays were performed at 30 °C in 50 mM HEPES pH 7.4, 100 mM KCl, 9 mM MgCl2, and contained 0.6 μM UBA1 (E1), 8 μM UBE2C or UBE2S, 60 μM His6-ubiquitin, and 5.6 mM ATP. It should be noted that wild-type UBE2C and UBE2S were used. The reaction was done in a volume of 15 μL, and it was quenched after 45 min with the LDS sample buffer supplemented with 100 mM DTT and subjected to SDS-PAGE followed by Blue Silver staining. Imaging of Blue Silver-stained gels was done by a quantitative near-infrared scanning system, Odyssey. It should be noted that reactions without ATP were first preincubated for 5 min at room temperature.

APC/C [2] = molecular target: T8, APC/C; test: In vitro APC/C ubiquitylation assay with APC/C immunoprecipitated from metaphase HeLa cells; type: biochemical; parameters: immunoprecipitated APC/C from metaphase-synchronized HeLa cells; endogenous in cells; host or cells: metaphase-synchronized HeLa cells (APC/C); the E2 is recombinant; details: 100 μM, end-point assay, UBE2C as E2, dye-labeled securin, in-gel scanning, n = 5
Description: To assess prevention of RING activation by our E2 mimetics, and thus validate our design strategy, we employed in vitro APC/C ubiquitylation assays containing immunoprecipitated APC/C from metaphase-synchronized HeLa cells, recombinant UBA1 (E1), UBE2C (E2), ubiquitin, and dye-labeled metaphase APC/C substrate securin (Figure A). […] To immobilize BH3 to beads, we used our models to introduce propargylglycine (Pra) (Pra-BH3) at the N-term and thus enable side chain conjugation with azide agarose beads by click chemistry (Figure E). […] Pra-BH3 also precipitated other RING-type E3 including BRCA1, BMI1, MDM2, c-CBL and c-IAP1 (Figure F). However, except for c-CBL and MDM2, those interactions were weaker, as judged by the degree of enrichment over the input of the assay (Figure G).
APC/C-dependent ubiquitination reactions were performed at 30 °C in 30 mM HEPES pH 7.4, 175 mM NaCl, 8 mM MgCl2, 0.05% Tween-20, 1 mM DTT and 5% glycerol and contained 20 nM recombinant APC/C, 340 nM CDC20, 46 nM GST-UBA1, 340 nM UBE2C (alternatively 400 nM UBE2D, 280 nM UBE2S), 21 μM His6-ubiquitin or if it is indicated 21 μM methylated-ubiquitin (BostonBiochem), 2.6 mM ATP, 10 mM phosphocreatine, and 11 μM creatine kinase. […] Detection of fluorescently labeled substrates was done by a quantitative near-infrared scanning system, Odyssey.

precipitation of c-IAP1 on beads, enrichment over input (c-IAP1): weaker
precipitation of BRCA1 on beads, enrichment over input (BRCA1): weaker
enrichment of APC11 on beads (APC11): strong enrichment
enrichment of RBX1 on beads (RBX1; peptide clicked to azide agarose beads, 2 mg HeLa extract, 4 °C, 2 h): not
binding to RBX1, Pra-H1 versus Pra-BH3 (RBX1): very weak and unchanged
precipitation of BMI1 on beads, enrichment over input (BMI1): weaker
precipitation of MDM2 on beads (MDM2): precipitated
precipitation of c-CBL on beads (c-CBL): precipitated
Compound: Ac-[Pra]RCHWGPRTFWCR-NH2 (disulfide 3-12 (inferred); SMILES C#CC[C@H](NC(C)=O)C(=O)N[C@@H](CCCNC(=N)N)C(=O)N[C@H]1CSSC[C@@H](C(=O)N[C@@H](CCCNC(=N)N)C(N)=O)NC(=O)[C@H](Cc2c[nH]c3ccccc23)NC(=O)[C@H](Cc2ccccc2)NC(=O)[C@H]([C@@H](C)O)NC(=O)[C@H](CCCNC(=N)N)NC(=O)[C@@H]2CCCN2C(=O)CNC(=O)[C@H](Cc2c[nH]c3ccccc23)NC(=O)[C@H](Cc2c[nH]cn2)NC1=O) [Pra-BH3, BH3 with propargylglycine at the N-term for click chemistry]

reduction of APC/C activity toward securin (APC/C [1]): more than 80%
decrease in UBE2S autoubiquitylation compared to control reactions (UBE2S): ~10%
Compound: CC[C@H](C)[C@@H]1NC(=O)[C@H](CCC(=O)O)NC(=O)[C@H](CCCCN)NC(=O)[C@H]([C@@H](C)CC)NC(=O)[C@](C)(NC(=O)[C@H](Cc2c[nH]c3ccccc23)NC(=O)[C@H](Cc2c[nH]c3ccccc23)NC(=O)[C@H](CCC(=O)O)NC(C)=O)CCCCCCC=CCCC[C@@](C)(C(=O)N[C@@H](CCCNC(=N)N)C(=O)N[C@@H](CCCNC(=N)N)C(=O)N[C@@H](C)C(N)=O)NC(=O)[C@H](CCCNC(=N)N)NC(=O)[C@H](CCC(N)=O)NC1=O [H6] (Ac-EWW[R8]IKEIQR[S5]RRA-NH2; staple 4-11)

binding to RBX1, Pra-H1 versus Pra-BH3 (RBX1): very weak and unchanged
Compound: C#CC[C@H](NC(=O)[C@@H]1CCCN1C(=O)[C@H](Cc1c[nH]c2ccccc12)NC(=O)[C@H](CCCNC(=N)N)NC(C)=O)C(=O)N[C@@]1(C)CCCC=CCCC[C@@](C)(C(=O)N[C@@H](CCC(N)=O)C(=O)N[C@H](C(=O)N[C@@H](CCCNC(=N)N)C(=O)N[C@@H](CCCNC(=N)N)C(=O)N[C@@H](Cc2c[nH]c3ccccc23)C(N)=O)C(C)C)NC(=O)[C@H](CC(=O)O)NC(=O)[C@H](Cc2c[nH]c3ccccc23)NC(=O)[C@H](CCCCN)NC1=O [Pra-H1] (Ac-RWP[Pra][S5]KWD[S5]QVRRW-NH2; staple 5-9)

securin ubiquitylation compared to control reactions (APC/C [2]): no such effect
Compound: C[C@@H](O)[C@H](NC(=O)[C@H](CCCNC(=N)N)NC(=O)[C@@H]1CSSC[C@H](NC(=O)[C@H](CCCNC(=N)N)NC(=O)CN)C(=O)N[C@@H](Cc2c[nH]cn2)C(=O)N[C@@H](Cc2c[nH]c3ccccc23)C(=O)NCC(=O)N2CCC[C@H]2C(=O)N[C@@H](CCC(=O)O)C(=O)N[C@@H]([C@@H](C)O)C(=O)N[C@@H](Cc2ccccc2)C(=O)N[C@@H](Cc2c[nH]c3ccccc23)C(=O)N1)C(=O)O [BH4] (H-GRCHWGPETFWCRT-OH; disulfide 3-12)
